The target in experiment [1] is T1, Carboxy-terminal domain RNA polymerase II polypeptide A small phosphatase 1 (Homo sapiens, UniProt Q9GZU7).
T1 sequence (Q9GZU7 whole entry): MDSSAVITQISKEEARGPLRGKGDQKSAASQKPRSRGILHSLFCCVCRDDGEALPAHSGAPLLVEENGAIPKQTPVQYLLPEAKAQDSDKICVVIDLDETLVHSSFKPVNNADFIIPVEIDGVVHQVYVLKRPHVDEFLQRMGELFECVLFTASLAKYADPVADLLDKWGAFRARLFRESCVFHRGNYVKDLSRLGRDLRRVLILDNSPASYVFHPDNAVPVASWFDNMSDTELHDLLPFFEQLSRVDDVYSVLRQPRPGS
Nature of the experiment: CTDSP1 inhibitors, concentration-response, biochemical, absorbance readout, ultra-high-throughput screen actives (AID 540297). It is filed as functional.

A short description of experiment [2]: NIH3T3 cell viability loss – ATP luminescence, mouse fibroblasts, counter-screen, dose response (AID 2010).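 Note: cells exposed to compound for about 90 hours before reading.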 In kind it is functional, cell-based. Background: Counterscreens check selectivity or assay interference.
The next experiment is described as follows: cells. It is filed as functional.
Experiment [3] is described as follows: Trypanosoma cruzi growth suppression in host cells – NIH3T3 host cells, beta-gal luminescence, confirmation (AID 2044).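 Note: intracellular parasites grown in NIH/3T3 mouse fibroblasts as host cells; luminescent beta-galactosidase reporter signal from transgenic T. cruzi replicating inside host cells; inhibitors lower the luminescence signal.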 It is filed as functional, cell-based.
Experiment [4] in a line: luciferase reporter signal suppression in cells – H4 neuroglioma cells, luminescence, dose response (AID 1990). It is filed as functional, cell-based. On the technique in general: Reporter assays use an easily measured gene product as a stand-in for the process of interest.
A short description of experiment [5]: Luminescence Cell-Based Dose Response HTS to Identify Inhibitors of 5'UTR Stem-Loop Driven Prion Protein mRNA Translation in H4 Neuroglioblastoma Cells. [Related pubchem assays: 1827 (Project Summary), 1813 (Primary HTS)]. It is filed as functional.
A short description of experiment [6]: alpha-synuclein stem-loop luciferase translation blockers – H4 neuroglioma cells, luminescence, confirmation (AID 1988). It is filed as functional, cell-based.
The target in experiment [7] is T2, Microphthalmia-associated transcription factor (Homo sapiens, UniProt O75030).
T2 sequence (O75030 whole entry): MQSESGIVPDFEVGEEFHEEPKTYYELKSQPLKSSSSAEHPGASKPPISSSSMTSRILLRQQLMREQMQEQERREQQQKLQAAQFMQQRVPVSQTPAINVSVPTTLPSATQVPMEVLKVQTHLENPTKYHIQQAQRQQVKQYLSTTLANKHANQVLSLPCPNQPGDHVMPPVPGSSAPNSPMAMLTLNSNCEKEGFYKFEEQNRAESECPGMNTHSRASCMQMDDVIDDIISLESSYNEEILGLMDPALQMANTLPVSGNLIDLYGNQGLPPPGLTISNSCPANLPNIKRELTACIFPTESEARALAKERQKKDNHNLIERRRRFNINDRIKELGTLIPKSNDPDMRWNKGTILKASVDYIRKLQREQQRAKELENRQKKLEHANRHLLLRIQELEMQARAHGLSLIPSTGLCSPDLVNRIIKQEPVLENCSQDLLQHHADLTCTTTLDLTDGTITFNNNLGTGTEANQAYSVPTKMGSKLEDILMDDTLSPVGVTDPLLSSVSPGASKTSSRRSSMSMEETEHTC
Nature of the experiment: reducers of TRPM1 reporter luminescence, concentration series – cell-based, SK-MEL-5, cherry-picked, set 3, MITF inhibitor project, dose response (AID 493073).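 Note: SK-MEL-5 melanoma cells with luciferase driven by the MITF target TRPM1 promoter.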 In kind it is functional.

For experiment [8], the target named is Eukaryotic translation initiation factor 4E (Mus musculus, UniProt P63073). The experiment in a line: blockers of eIF4G binding by eIF4E – biochemical, TR-FRET, dose response (AID 855).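 Note: potency for disrupting eIF4E binding to eIF4GI seen as loss of FRET.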 It is filed as functional. For orientation: TR-FRET usually uses a lanthanide donor and a delayed reading to cut background.
The nature of experiment [9]: blockers of HIV-1 envelope-mediated cell-cell fusion – cherry-pick, dose response (AID 652057). In kind it is functional, cell-based.
Experiment [10] deals with Induced myeloid leukemia cell differentiation protein Mcl-1 (Homo sapiens, UniProt Q07820). In kind it is functional.
A further experiment concerns Streptococcus. The experiment in a line: GAS UMAA2166 growth inhibition – luminescence, BacTiterGlo, counter-screen for streptokinase expression inhibitor project, dose response (AID 1915).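 Note: potency for reduction of bacterial viability or growth.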 In kind it is functional, organism-based.
The subject of experiment [11] is Streptococcus sp. 'group A'. Nature of the experiment: Streptococcus pyogenes SK(-)GAS viability under kanamycin – luminescence, BacTiterGlo, confirmation, counter-screen for streptokinase expression inhibitor project, dose response (AID 1900). It is filed as functional, organism-based. Particulars: read-out: EC50.
Another experiment addresses Large T antigen (Simian virus 40, UniProt P03070). In kind it is functional, Betapolyomavirus macacae.
A short description of experiment [12]: reduction of Shn3 3'UTR-driven luciferase in osteoblasts – cell-based, Clone20 osteoblasts, firefly luciferase, cherry-picked, dose response (AID 624132).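 Note: firefly luciferase luminescence from reporter carrying the Shn3 3'UTR in osteoblasts.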 It is filed as functional.
Experiment [13] is described as follows: NIH-3T3 fibroblast cytotoxicity, dose response, cytotoxicity control, cell-based, fluorescence, Alamar Blue, secondary assay (AID 2327).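 Note: NIH-3T3 mouse fibroblasts cultured with fluconazole at 8 µg/mL.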 It is filed as functional.
In experiment [14] the target is T3, Rac GTPase-activating protein 1 (Homo sapiens, UniProt Q9H0H5).
T3 sequence (Q9H0H5 whole entry): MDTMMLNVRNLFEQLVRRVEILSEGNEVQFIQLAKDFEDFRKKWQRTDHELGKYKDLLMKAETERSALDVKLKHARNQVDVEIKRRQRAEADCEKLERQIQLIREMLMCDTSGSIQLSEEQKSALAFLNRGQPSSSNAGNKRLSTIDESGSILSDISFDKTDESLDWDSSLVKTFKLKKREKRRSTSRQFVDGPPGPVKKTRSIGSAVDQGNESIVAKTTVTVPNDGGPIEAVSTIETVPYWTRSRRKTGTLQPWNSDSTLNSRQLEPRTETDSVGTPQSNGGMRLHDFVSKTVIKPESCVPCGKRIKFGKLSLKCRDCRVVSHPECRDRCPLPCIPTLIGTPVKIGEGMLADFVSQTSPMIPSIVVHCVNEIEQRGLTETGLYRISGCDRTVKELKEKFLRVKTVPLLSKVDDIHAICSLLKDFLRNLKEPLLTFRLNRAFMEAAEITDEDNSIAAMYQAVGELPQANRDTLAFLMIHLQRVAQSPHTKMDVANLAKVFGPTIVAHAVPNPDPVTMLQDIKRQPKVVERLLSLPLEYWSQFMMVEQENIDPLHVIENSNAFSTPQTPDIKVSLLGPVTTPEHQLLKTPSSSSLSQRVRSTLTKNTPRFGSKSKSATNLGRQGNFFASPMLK
Nature of the experiment: blockers of MgcRacGAP-driven Rac1 GTP hydrolysis – biochemical, ADP Hunter fluorescence, primary and confirmatory, confirmation (AID 624330). It is filed as functional.

A short description of experiment [15]: Luminescence Cell-Based Dose Confirmation HTS to Identify Inhibitors of Platelet Dense Granule Release. [Related pubchem assays: 1663 (Primary HTS), 1678 (Summary of Project)]. It is filed as functional.
Experiment [16] deals with Luciferin 4-monooxygenase (Photinus pyralis, UniProt P08659). Nature of the experiment: inhibition of purified Photinus pyralis luciferase – biochemical, luminescence, dose response (AID 1891).
Experiment [17] is described as follows: fluconazole-exposed Candida albicans growth modulators – fluorescence, retest, confirmation (AID 2467). It is filed as functional, cell-based.

Active and inactive are the calls of the source.

36 compounds from ChEMBL document CHEMBL1201862, “PubChem BioAssay data set” (2004) can be followed below.

Chain of Eukaryotic translation initiation factor 4E (P63073 whole entry, the tested form may be a part): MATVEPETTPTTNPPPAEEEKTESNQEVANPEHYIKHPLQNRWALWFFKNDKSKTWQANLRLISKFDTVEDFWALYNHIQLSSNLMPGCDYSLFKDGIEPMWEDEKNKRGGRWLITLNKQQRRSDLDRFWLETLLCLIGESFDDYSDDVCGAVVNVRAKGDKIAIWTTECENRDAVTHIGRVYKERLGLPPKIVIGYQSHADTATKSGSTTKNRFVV
Chain of Large T antigen (P03070 whole entry): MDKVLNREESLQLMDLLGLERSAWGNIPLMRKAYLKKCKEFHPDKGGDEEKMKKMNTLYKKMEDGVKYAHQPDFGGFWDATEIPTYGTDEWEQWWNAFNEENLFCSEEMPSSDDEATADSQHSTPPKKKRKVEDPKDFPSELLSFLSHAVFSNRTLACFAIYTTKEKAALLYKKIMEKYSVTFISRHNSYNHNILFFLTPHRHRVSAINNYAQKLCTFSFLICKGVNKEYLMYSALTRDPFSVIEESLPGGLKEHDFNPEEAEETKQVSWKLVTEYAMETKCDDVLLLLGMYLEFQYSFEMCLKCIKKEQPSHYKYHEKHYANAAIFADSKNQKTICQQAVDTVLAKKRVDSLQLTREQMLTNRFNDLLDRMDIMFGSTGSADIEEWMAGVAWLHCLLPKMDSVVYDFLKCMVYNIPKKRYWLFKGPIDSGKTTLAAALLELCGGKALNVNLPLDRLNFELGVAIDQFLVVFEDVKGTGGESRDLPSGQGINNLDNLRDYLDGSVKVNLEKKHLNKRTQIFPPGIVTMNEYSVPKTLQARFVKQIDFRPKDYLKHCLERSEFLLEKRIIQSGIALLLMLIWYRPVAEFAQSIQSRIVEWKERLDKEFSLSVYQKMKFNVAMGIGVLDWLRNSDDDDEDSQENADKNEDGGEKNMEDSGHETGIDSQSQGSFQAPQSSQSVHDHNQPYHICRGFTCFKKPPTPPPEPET
Chain of Induced myeloid leukemia cell differentiation protein Mcl-1 (Q07820 whole entry): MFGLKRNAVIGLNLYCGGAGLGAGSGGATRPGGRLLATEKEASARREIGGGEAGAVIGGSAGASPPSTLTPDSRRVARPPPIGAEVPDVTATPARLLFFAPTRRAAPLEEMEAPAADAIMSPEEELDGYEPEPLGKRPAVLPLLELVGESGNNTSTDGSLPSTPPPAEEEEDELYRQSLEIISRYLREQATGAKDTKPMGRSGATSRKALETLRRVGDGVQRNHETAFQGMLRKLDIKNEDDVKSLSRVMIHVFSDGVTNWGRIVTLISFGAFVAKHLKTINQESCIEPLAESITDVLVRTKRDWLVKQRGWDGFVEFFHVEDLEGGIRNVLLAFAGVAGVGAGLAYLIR
Chain of Luciferin 4-monooxygenase (P08659 whole entry): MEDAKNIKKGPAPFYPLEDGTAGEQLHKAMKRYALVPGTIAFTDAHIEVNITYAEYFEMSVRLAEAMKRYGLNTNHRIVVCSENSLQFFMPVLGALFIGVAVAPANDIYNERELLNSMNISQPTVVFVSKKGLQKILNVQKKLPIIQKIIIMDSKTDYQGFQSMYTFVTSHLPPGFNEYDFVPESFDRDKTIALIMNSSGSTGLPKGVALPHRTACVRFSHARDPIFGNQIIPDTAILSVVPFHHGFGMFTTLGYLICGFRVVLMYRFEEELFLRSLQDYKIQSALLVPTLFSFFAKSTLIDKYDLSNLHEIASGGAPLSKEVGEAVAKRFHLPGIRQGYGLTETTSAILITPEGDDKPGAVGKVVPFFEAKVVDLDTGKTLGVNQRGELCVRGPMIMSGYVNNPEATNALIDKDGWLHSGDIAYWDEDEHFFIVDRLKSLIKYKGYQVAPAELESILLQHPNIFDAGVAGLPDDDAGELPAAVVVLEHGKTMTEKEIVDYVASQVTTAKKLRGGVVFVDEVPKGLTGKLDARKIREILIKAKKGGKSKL

On to `O=C(CCS(=O)(=O)c1ccc(Br)cc1)NCc1ccc(F)cc1`, for which, in experiment [1], the IC50 (usually the midpoint of a concentration-inhibition curve) was 7.9 µM (active).
For `O=C(c1ccc([N+](=O)[O-])cc1)c1cc2ccc(O)cc2oc1=O`, the IC50 in experiment [1] is 10.8 µM (active).
On to `O=[N+]([O-])c1ccc(CN2CCN(c3ccc(Cl)cc3)CC2)o1`, for which the figures for the EC50 in [2] and in experiment [3] were > 60 µM (not active) and 0.758 µM (active), respectively. The concentration for half-maximal inhibition (IC50) in the experiment “cells” is < 0.1 µM (active).
With `COc1ccc(C(=O)NC(=O)Nc2cc(C)ccn2)cc1`, the EC50 (usually the concentration that produces a half-maximal response) in experiment [4] is 1.67 µM (active); in experiment [5], 0.533 µM (active); in experiment [6] it was 0.367 µM (active). For the same compound, the AC50 (in general, the midpoint of the concentration-response curve, whichever way the signal moves) in experiment [7] is 4.96 µM (active).
On to `CCCCC(=O)Nc1ccc2oc(-c3ccncc3)nc2c1`, for which the IC50 in experiment [8] is > 64 µM (inactive).
With `COc1ccc(C(=O)Nc2ccccc2C(N)=O)cc1`, the IC50 in experiment [8] is > 64 µM (inactive).
Take `Cc1ccc(S(=O)(=O)Nc2ccc3c(c2)CC(=O)N([C@@H](C)CO)C[C@H](C)[C@@H](CN(C)Cc2ccc(-c4ccccc4)cc2)O3)cc1`: the AC50 in [9] is 20.2 µM (active).
Turning to `O=C1c2ccccc2C(=O)N1/N=C/c1ccc(O)c(O)c1O`, in experiment [10], the IC50 is 2.28 µM (active).
For the compound `Cc1ccc2nc(N3C(=O)C(O)=C(C(=O)c4cc5ccccc5o4)C3c3cccs3)sc2c1` (stereo unspecified), the IC50 in [10] is 2.37 µM (active). Besides, the results for the concentration for a half-maximal effect (EC50) (with Streptococcus; in experiment [11]) were 7.6 µM (active) and 1.39 µM (active), respectively.
`CCc1n[nH]c(SCC(=O)Nc2ccc(N(C)C)cc2)n1`: on Large T antigen, the IC50 was 15.5 µM (active).
Consider `COc1ccc2[nH]c(=O)c(CN(CCN3CCCC3)C(=O)Nc3ccccc3Cl)cc2c1`, for which the IC50 in [8] was > 64 µM (inactive).
Regarding `COc1ccc2c(c1OC)C(=O)N1c3ccccc3C(=O)N(c3ccccc3F)C21` (stereo unspecified), the EC50 in experiment [4] is > 120 µM (not active); in experiment [5], 13.1 µM (active); in [6], 12 µM (active). The AC50 in [12] was 11.6 µM (active).
For the compound `CC(C)c1cc(C(=O)Nc2cccc(Cl)c2)no1`, in experiment [8], the IC50 was > 64 µM (inactive).
Regarding `COc1cc(NC(=O)c2ccccc2)c(OC)cc1NC(=O)Cc1cccs1`, the IC50 is 50 µM (inactive) in experiment [8] and 3.86 µM (active) in experiment [1].
Turning to `COC(=O)[C@@]1(Cc2ccccc2)[C@H]2c3cc(C(=O)N4CCCC4)n(CCSCCO)c3C[C@H]2CN1C(=O)c1ccccc1`, the IC50 in [10] is 1.87 µM (not active).
On to `CCOC(=O)c1c(-c2cccc([N+](=O)[O-])c2)csc1NC(=O)CCCOc1ccccc1`, for which the IC50 in experiment [8] was > 64 µM (inactive).
`CC1CCCCN1S(=O)(=O)c1ccc(NC(=O)c2cccc(-n3cnnn3)c2)cc1` (stereo unspecified): the EC50 in [13] is > 150 µM (inactive).
Turning to `O=C(Oc1ccc(/C=N/O)cc1)c1ccccc1Cl`, in the experiment “cells”, the IC50 is 22.6 µM (active).
For the compound `CCn1c(C)nc2cc(C(=O)N/N=C/c3ccc(OC)c(O)c3)ccc21`, the IC50 in experiment [14] is 80 µM (active); on Large T antigen, 4.76 µM (active).
For the compound `O=C1/C(=C\c2ccc(O)c(O)c2)N=C2CCCCCN12`, the IC50 in experiment [14] is 17.4 µM (active); at Large T antigen, 6.68 µM (active).
On to `C[C@@H](O)C1NC(=O)[C@H](CCCCN)NC(=O)c2cc([N+](=O)[O-])cc(I)c2NCCC[C@@H](C(N)=O)NC1=O` (stereo partly specified), for which, in experiment [8], the IC50 is > 64 µM (inactive).
Regarding `CC(C)(C)NC(=O)CCN(/N=C/c1ccc([N+](=O)[O-])o1)C1=NS(=O)(=O)c2ccccc21`, the AC50 in experiment [7] was 7.18 µM (active).
In the case of `COc1cc(Cn2nnc3ccccc32)ccc1O`, at Large T antigen, the IC50 is 7.55 µM (active).
Regarding `COc1cnn(C2CCCCC2)c(=O)c1O`, the IC50 in the experiment “cells” is 33.5 µM (active).
For the compound `Cc1ccc(OC(S)=Nc2ccc(O)cc2)cc1`, the IC50 is 31.6 µM (active) in experiment [14] and 13 µM (active) at Large T antigen.
For the compound `O=C1NC(=O)C(=Cc2ccc(-c3ccc(Cl)cc3)o2)C(=O)N1`, the IC50 in the experiment “cells” was > 50 µM (active). Besides, the AC50 in experiment [7] was 9.2 µM (active).
On to `CCOC(=O)C1CCN(C(c2ccccn2)c2c(C)[nH]c3ccccc23)CC1` (stereo unspecified), for which the EC50 in [15] was 16.5 µM (active); in experiment [16], > 112 µM (not active).
The like results for `CCCCOC(=O)c1ccc(OC(=O)N2CCOCC2)cc1` were, in that order, > 112 µM (not active) and > 112 µM (not active).
For `COc1cc(/C=N/NC2=NC(=O)C(CC(=O)O)S2)ccc1OCc1ccc(Cl)cc1` (stereo unspecified), the IC50 in [1] was 12.4 µM (active).
On to `O=C(CCS(=O)(=O)c1cccc2nsnc12)NCc1ccccc1Cl`, for which, in experiment [8], the IC50 is > 64 µM (inactive).
For `CSc1ccc(/C=N/NC(=O)c2ccc(C)c(C)c2)cc1`, the IC50 in experiment [1] was 9.17 µM (active).
For `Cc1ccc(S(=O)(=O)CC(C)N2CCOCC2)c(S(=O)(=O)CC(C)N2CCOCC2)c1` (stereo unspecified), the results for the EC50 in experiment [17] and in [13] were 6.26 µM (active) and > 160 µM (inactive), respectively.
In the case of `COc1ccc(NC(=O)c2cnn(-c3ccccc3)c2C)cc1`, the EC50 in [15] was 6.03 µM (active); in [16], 16.6 µM (active).
For `CC(=O)Oc1c(C(=O)c2nnc(C)o2)c(=O)n(Cc2ccccc2)c2ccccc12`, the AC50 in experiment [7] was 6.98 µM (active).
For `CCCOC(=O)c1ccc(OCC(O)CN2CCN(C(=O)c3ccccc3)CC2)cc1` (stereo unspecified), the IC50 in experiment [8] is > 64 µM (inactive).
With `COc1cc2c(cc1OC)-c1cc(Nc3cccc(C)c3)nc(=O)n1CC2`, the half-maximal effective concentration (EC50) in [15] was 4.03 µM (active); in experiment [16] it was > 112 µM (not active).
